Earlier results, collected in patent publication US11390612B2, “Polymorphic forms of Afatinib free base and Afatinib dimaleate” (FRESENIUS KABI ONCOLOGY LIMITED, priority 2015, dated 2022).

Conditions: as observed in WO 2013/052157

Structure (SMILES): CN(C)C/C=C/C(=O)Nc1cc2c(Nc3ccc(F)c(Cl)c3)ncnc2cc1O[C@H]1CCOC1.O=C(O)/C=C\C(=O)O.O=C(O)/C=C\C(=O)O [form A of Afatinib dimaleate]
- polymorphic conversion after absorbing moisture (after absorbing moisture): converts to form E of Afatinib dimaleate
- hygroscopicity: hygroscopic in nature
